Test results from patent US5814649A, “Preventive and remedy for type 1 allergic diseases” (priority 1994, dated 1998).

Key:
[1] = tested on: OVA-sensitized rat anaphylactic models; experiment: Survival of OVA-sensitized BN rats after anaphylactic shock induced by OVA (Example 1); type: in vivo, BN/Crj rats (female); details: for Survival Rate: day 0 to 9, OVA challenge day 10
Description: (§1) Using female BN/Crj rats of 7 weeks old, sensitization by OVA was carried out as described below.
(§2) 10 mg/kg of OVA and 300 mg/kg of aluminum hydroxide (Alum) were intraperitoneally given (10 ml/kg) on the day (day 0) of administration. On day 3, 7 and 9 after the sensitization, blood samples were collected, the serum was separated and IgE concentration was determined. On day 10 after the sensitization, 60 mg/kg of OVA dissolved in physiological saline was given to the rats from the tail vein to cause anaphylactic shock. On the other hand, blood samples were collected at the jugular vein before and after the induction of the anaphylactic shock by OVA, and, after separation of the plasma, histamine level was determined.
(§3) The drug suspended in 1% carboxymethylcellulose (CMC) was repeatedly given orally once a day from day 0 to 9. […] All animals in each group were weighed in the morning once a week and the drug was given upon the body weights as weighed. To the solvent control group was given a 1% CMC solution. And further, non-medicated groups and non-treated groups were prepared. No treatment was applied to the non-treated group. The test was carried out using 6 rats per group.
(§4) The effect of the anilide compounds (I) on BN rats was evaluated from the survival rates of BN rats, the IgE levels in the sera and the histamine levels in the plasma before and after the induction of anaphylactic shock by OVA.

IgE [2] = experiment: Serum IgE level of OVA-sensitized BN rats by sandwich-type ELISA (Example 1); type: in vivo, BN/Crj rats (female); details: day 9 after OVA sensitization, mean ± SD
Description: as §1, §2, §3, §4
The IgE level in sera was determined using the homemade sandwich-type ELISA system.

histamine = experiment: Plasma histamine level before and after induction of anaphylactic shock by OVA (Example 1); type: in vivo, BN/Crj rats (female); details: 10 mg/kg orally once a day, ± SD; for Histamine amount, after OVA challenge: day 10, after OVA challenge; for Histamine amount, before OVA challenge: day 10, before OVA challenge
Description: as §1, §2, §3
Then, the plasma histamine levels before and after the induction of the anaphylactic shock by OVA on day 10 after OVA sensitization were determined as a parameter for allergic reactions.

[3] = tested on: autoimmune diseases such as articular rheumatism, systemic lupus erythematosus and the like; details: diseased animal models; cited from earlier work
IgE [4] = experiment: Minimum effective dose of leflunomide: serum IgE level of OVA-sensitized BN rats (Example 2); type: in vivo, BN/Crj rats (female); details: for Serum IgE amount: day 9 after OVA, ± SD
Description: (§5) Using female BN/Crj rats of 7 weeks old, sensitization by OVA was carried out as described below. 10 mg/kg of OVA and 300 mg/kg of aluminum hydroxide (Alum) were intraperitoneally given on the day (day 0) of administration. Blood samples were collected on day 3, 5, 7 and 9 after the sensitization, the serum was separated and IgE concentration was determined. And, 60 mg/kg of the OVA dissolved in physiological saline was given to the rats from the tail vein to cause anaphylactic shock.
(§6) The drug suspended in 1% carboxymethylcellulose (CMC) was repeatedly given orally once a day from day 0 to 9. […] All animals in each group were weighed in the morning once a week and the drug was given upon the body weights as weighed. A 1% CMC solution was given to the solvent control group. And further, non-treated group was prepared as control to which no treatment was applied. The test was carried out using 6 rats per group.

mast cells = details: cited from earlier work
[5] = after administration; cited from earlier work
[6] = tested on: OVA-sensitized rat anaphylactic models; experiment: Minimum effective dose of leflunomide: survival of OVA-sensitized BN rats after anaphylactic shock (Example 2); type: in vivo, BN/Crj rats (female); details: for Survival Rate: day 0 to 9
Description: as §5, §6

mice = details: cited from earlier work
[7] = leflunomide 0.5 mg/kg orally once a day
[8] = leflunomide 1 mg/kg orally once a day
[9] = leflunomide 2 mg/kg orally once a day

SMILES: CN(C(=O)C(C#N)C(=O)C1CC1)c1ccc(Cl)cc1 (centres unmarked) [Compound C, 2-cyano-3-cyclopropyl-3-oxo-N-methyl-N-(4-chlorophenyl)-propionamide]
- Survival Rate ([1]; 10 mg/kg orally once a day): 100%
- IgE amount in sera (IgE [2]; 10 mg/kg orally once a day): 0.5 ± 0.1 µg/mL
- Histamine amount, after OVA challenge (histamine): 0.1 ± 0.0 µM
- Histamine amount, before OVA challenge (histamine): 0.3 ± 0.2 µM

SMILES: Cc1oncc1C(=O)Nc1ccc(C(F)(F)F)cc1 [Leflunomide, 5-methylisoxazole-4-carboxylic acid-N-(4-trifluoromethyl) anilide]
- survival without anaphylactic shock ([1]; 2 mg/kg): all animals survived without any anaphylactic shock
- Survival Rate ([1]; 2 mg/kg orally once a day): 100%
- IgE amount in sera (IgE [2]; 2 mg/kg orally once a day): 0.4 ± 0.1 µg/mL
- IgE amount in sera (IgE [2]; 2 mg/kg orally once a day, listed as leflunomide): 0.4 µg/mL
- effect on autoimmune diseases [3]: have an effect on autoimmune diseases such as articular rheumatism, systemic lupus erythematosus and the like
- inhibition of increase in serum IgE level (IgE [4]; after antigen sensitization): can inhibit an increase in the serum IgE level after the antigen sensitization
- Serum IgE amount (IgE [4]; [7]): 357.7 ± 119.0 µg/mL
- Serum IgE amount (IgE [4]; leflunomide 0.5 mg/kg orally once a day, listed as leflunomide): 357.7 µg/mL
- Serum IgE amount (IgE [4]; [8]): 0.8 ± 0.1 µg/mL
- Serum IgE amount (IgE [4]; leflunomide 1 mg/kg orally once a day, listed as leflunomide): 0.8 µg/mL
- Serum IgE amount (IgE [4]; [9]): 0.4 ± 0.1 µg/mL
- Serum IgE amount (IgE [4]; leflunomide 2 mg/kg orally once a day, listed as leflunomide): 0.4 µg/mL
- inhibitory effect on histamine-release from mast cells (mast cells): has an inhibitory effect on histamine-release from mast cells
- conversion to pharmacologically active Compound A [5]: converted to pharmacologically active Compound A as defined above by rapid metabolism after administration
- Survival Rate [6, 7]: 0%
- survival without anaphylactic shock ([6]; leflunomide 1 mg/kg): all animals survived without any anaphylactic shock
- Survival Rate [6, 8]: 100%
- survival without anaphylactic shock ([6]; leflunomide 2 mg/kg): all animals survived without any anaphylactic shock
- Survival Rate [6, 9]: 100%
- LD50 (p.o.) (mice): 445 mg/kg

SMILES: C[C@]12C=CC(=O)C=C1CC[C@@H]1[C@@H]2[C@@H](O)C[C@@]2(C)[C@H]1CC[C@]2(O)C(=O)CO [Prednisolone]
- Survival Rate ([1]; 2 mg/kg orally once a day): 0%
- IgE amount in sera (IgE [2]; 2 mg/kg orally once a day): 148.1 ± 72.0 µg/mL
- IgE amount in sera (IgE [2]; 2 mg/kg orally once a day, listed as prednisolone): 148.1 µg/mL

SMILES: C/C(O)=C(\C#N)C(=O)Nc1ccc(C(F)(F)F)cc1 [Compound A, N-(4-trifluoromethylphenyl)-2-cyano-3-hydroxy-crotonamide]
- Survival Rate ([1]; 10 mg/kg orally once a day): 33%
- IgE amount in sera (IgE [2]; 10 mg/kg orally once a day): 0.3 ± 0.0 µg/mL
- Histamine amount, after OVA challenge (histamine): 0.1 ± 0.0 µM
- Histamine amount, before OVA challenge (histamine): 0.2 ± 0.1 µM
- effect on autoimmune diseases [3]: have an effect on autoimmune diseases such as articular rheumatism, systemic lupus erythematosus and the like

SMILES: C#CCCC(=O)C(C#N)C(=O)Nc1ccc(C(F)(F)F)cc1 (centres unmarked) [Compound E, 2-cyano-3-oxo-N-[4-(trifluoromethyl)phenyl]-6-heptinamide]
- Survival Rate ([1]; 10 mg/kg orally once a day): 100%
- IgE amount in sera (IgE [2]; 10 mg/kg orally once a day): 0.4 ± 0.1 µg/mL
- Histamine amount, after OVA challenge (histamine): 0.1 ± 0.0 µM
- Histamine amount, before OVA challenge (histamine): 0.3 ± 0.1 µM

SMILES: N#Cc1ccc(NC(=O)C(C#N)C(=O)C2CC2)cc1 (centres unmarked) [Compound D, 2-cyano-3-cyclopropyl-3-oxo-(4-cyanophenyl) propionamide]
- Survival Rate ([1]; 10 mg/kg orally once a day): 100%
- IgE amount in sera (IgE [2]; 10 mg/kg orally once a day): 0.6 ± 0.1 µg/mL
- Histamine amount, after OVA challenge (histamine): 0.6 ± 0.5 µM
- Histamine amount, before OVA challenge (histamine): 0.4 ± 0.2 µM

SMILES: Cc1cc(NC(=O)C(C#N)C(=O)C2CC2)ccc1C(F)(F)F (centres unmarked) [Compound B, 1-(3-methyl-4-trifluoromethylphenylcarbamoyl)-2-cyclopropyl-2-oxo-propionitrile]
- Survival Rate ([1]; 10 mg/kg orally once a day): 100%
- IgE amount in sera (IgE [2]; 10 mg/kg orally once a day): 0.6 ± 0.5 µg/mL
- Histamine amount, after OVA challenge (histamine): 1.3 ± 1.8 µM
- Histamine amount, before OVA challenge (histamine): 0.4 ± 0.1 µM
